The nature of this series: GVS characterization of Form III. The series is classed as physicochemical. The settings on record: at 90% RH.

`Cc1cc(C)cc([C@@H]2CCCN2Cc2ccc(Oc3ccc(C(N)=O)cc3F)cc2)c1` [Form III] showed a GVS max uptake of 0.4% max uptake at 90% RH.

The values above are taken from patent US12201610B2, “Compositions comprising aticaprant” (Janssen Pharmaceuticals, Inc., priority 2022, dated 2025).
